Test results from patent US11459311B2, “Pharmaceutical composition containing indirubin derivative as active ingredient” (CK Regeon Inc., priority 2017, dated 2022).
Where two headings read alike, the source gives them in different places.

How the values were obtained:
[1] = test system: ALP (alkaline phosphatase); assay: ALP activity assay in MC3T3-E1 cells; format: cell-based, Mouse; details: for increase of ALP activity: MC3T3-E1 cells, differentiation medium, 48 hours, versus control
Description: (§1) The MC3T3-E1 cell (Mouse osteoblastic cell line) was cultivated under conditions of 37° C. and 5% CO2 at the minimal essential media (α-MEM) (Gibco) containing 10% prenatal serum and 1% penicillin/streptomycin. For the test of differentiation induction, cells were cultivated in α-MEM mediums containing 50 μg/ml ascorbic acid and 100 mM β-glycerophosphate.
5×10^4 MC3T3-E1 cells were incubated on a 24 well plate for two days and stuck. After confirming that the cells reached 100% confluency, the medications (5,6-dichloroindirubin-3′-methoxime in Example 1) were treated in the differentiation medium for 48 hours. The cells were cleaned with a phosphoric acid buffer solution and the samples harvested were treated with a buffer solution (pH 10.3) containing 50 mM Tris-chloric acid, 100 mM glisin and p-nitro phenylpospate after cell lysis. For analysis, 3 M sodium hydroxide was treated, and absorbance was measured at 405 nm. The ALP activity was quantified by measuring the protein concentration using Bradford Analyzer.
ALP activity analysis was performed as Experimental Method 5 to determine the effect of 5,6-dichloroindirubin-3′-methoxime in Example 1 and 5-methoxylindirubin-3′-oxime in Example 2 on bone mineral density. FIG. 4 is a table showing the measured a graph showing ALP activity in cells and a table showing the degree of ALP activity in cells treated with 5,6-dichloroindirubin-3′-methoxime of Example 1 according to the present invention, 5-methoxylindirubin-3′-oxime of Example 2, indirubin derivatives of Comparative Examples 1-5 and 12. The control is the ALP activity in the cells prior to drug treatment.

β-catenin [2] = assay: Western blot for β-catenin stabilization in MC3T3-E1 cells; format: cell-based, Mouse; details: 24 hours treatment
Description: as §1
For Western blot analysis, drugs (here are 5,6-dichloroindirubin-3′-methoxime, 5-methoxylindirubin-3′-oxime) were treated 24 hours, and MC3T3-E1 cells were cultured and harvested in a culture dish to reach 100% confluency. Harvested samples for immunoblot was performed to quantify the protein was after cell lysis, using SDA-PAGE gel using the antibody after electrophoresis.
FIG. 5 is the result of Western blot using MC3T3-E1 cells (osteoblast cells) to confirm the effects of 5,6-dichloroindirubin-3′-methoxime of Example 1 and 5-methoxyindirubin-3′-oxime of Example 2 on the stability of β-catenin.

[3] = oral toxicity study in mouse; details: in vivo
Description: When an indirubin derivative represented by Formula 1 (5,6-dichloroindirubin-3′-methoxime) and an indirubin derivative represented by Formula 2 (5-methoxylindirubin-3′-oxime) were orally administered to a mouse for toxicity studies, they are considered to be safe substances because the 50% lethal dose (LD 50) of them are at least 1,000 mg/kg.

[4] = test system: osteoblasts and chondrocytes; assay: toxicity to osteoblasts and chondrocytes; format: cell-based
β-catenin [5] = assay: Immunocytochemistry of β-catenin expression and localization in ATDC5 cells; format: cell-based, Murine; details: 24 hours treatment, ICC
Description: (§2) The ATDC5 cell (Murine constant cell line) was cultured in the DMEM (Dulbecco's modified Eagle's medium, Gibco, Grand Island, N.Y.) containing 5% Fetal Bovine Serum (FBS) and 1% penicillin/streptomycin under conditions of 37° C. and 5% CO2.
Drugs (here are 5,6-dichloroindirubin-3′-methoxime, 5-methoxylindirubin-3′-oxime) were treated for 24 hours when the cells were securely attached to the cover glass that was placed in the 12 well plate at a density of 2.5×10^4 cells per well. Cells were cleaned with phosphoric acid buffer solution and fixed at room temperature for 20 minutes by adding 4% paraformaldehyde, and then a protein expressed in the cells was observed through the process of permeabilization, blocking and immunofluorescence.
FIG. 6 is a photograph confirming the β-catenin concentration in the ATDC5 cells treated with 5,6-dichloroindirubin-3′-methoxime of Example 1 and 5-methoxylindirubin-3′-oxime of Example 2 by immunocytochemistry. In other words, the expression and localization of β-catenin in ATDC5 cells were confirmed through ICC.

longitudinal bone = assay: ex-vivo longitudinal bone culture, length measurement; format: cell-based, C57BL/6 mice; details: for length of the longitudinal bone increased more effectively than by comparative indirubin derivatives: versus Comparative Examples 8, 9 and 10-12; for increase of the length of the long bone relative to the control group: printed as about two times (180%)
Description: Longitudinal bones were isolated from 15.5 embryonic day C57BL/6 mice and incubated for 7 days in a 24-well tissue culture dish. Medium was used as Minimal Essential Medim (α-MEM, Gibco) including 10% fetal bovine serum (FBS), 1 mM beta polyglycerol disodium phosphate, 50 ng/ml ascorbic acid, 0.3 g/L-glutamine, 0.2% BSA, 100 U/ml penicillin, 100 μg/ml streptomycin. After the longitudinal bone was separated from the mouse, the longitudinal bone isolated from the medium was incubated for 24 hours, and the drug was treated. The medium and the drug (here are Example 1, Example 2, Comparative Examples 1, 7-9 and indirubin derivatives of 10-12) were changed every other day. The length of the longitudinal bone was measured before and after treatment with the drug. The longitudinal bone tissue after drug treatment was marched with PBS and fixed using 4% formaldehyde.
In order to more precisely determine the effect of indirubin derivatives in Example 1 or Example 2 of the present invention and other indirubin derivatives on the culture of ex-vivo longintudinal bone, various indirubin derivatives (Examples 1 and 2 and comparison Example 1, 8, 9, 10-12 indirubin derivatives) were treated as in Experimental Method 6, and the length of the longitudinal bone was measured.
FIG. 1 is a photograph of the longitudinal bone cultured at each ex-vivo when treated with indirubin induction in Example 1, Example 2, and Comparison Example 1, 8, 9, 10-12. FIG. 2 is a graph and table showing the variation in the length of the longitudinal bone measured in FIG. 1. In this case, the drooping indirubin derivatives were identical at 0.5 μM and treated in culture medium for 6 days.
We sought to determine more accurately the effect of 6-bromoindirubin-3′-oxime (Comparative Example 6) on the culture of ex-vivo longitudinal bone. FIG. 3A is a photograph (left) of a longitudinal bone culture in ex-vivo and a graph showing the numerical value when treated with 6-bromoindirubin-3′-oxime of Comparative Example 6 (right). At that time, 0.5 μM 6-bromoindirubin-3′-oxime was treated in culture medium for 6 days. The control is longitudinal bone treated with DMSO solution instead of drug.

[6] = test system: ATDC5 cells (chondrocytes); assay: MTT reduction analysis; format: cell-based, Murine; details: 24 hours treatment
Description: as §2
When the cells were stably attached after 5×10^3 ATDC5 cells were stuck in 96 well plate, the drug (here is 6-bromoindirubin-3′-oxime) was treated. After 24 hours, transfer to a medium containing 100 μg/ml MTT [3-(4,5-dimethylthiazol-2-yl)-2,5-diphenyletrazoliumbromide)] and incubate the cells for 2 hours before removing the growth medium. The MTT, which was reduced to purple formazan, was dissolved with DMSO and then excreted at 540 nm by ab absorbance measurement.
FIG. 3B is a graph of MTT reduction analysis of chondrocytes after treatment of different concentration of 6-bromoindirubin-3′-oxime to confirm if the reduction in the length of longitudinal bone treated with 6-bromoindirubin-3′-oxime in Comparative Example 6 is related to the effect on the survival rate of chondrocytes.
MTT reduction assay is a method to measure the viability of cells by analyzing the difference in absorbance due to the reduction of yellow MTT to purple formazan caused by mitochondrial enzyme reaction in living cells.

[7] = 0.5 μM, 6 days in culture medium

SMILES	increase of ALP activity [1]	effects on bone growth, bone thickness or both more significant than those of other indirubin derivatives ([1]; versus other indirubin derivatives, test not specified)	stabilization of β-catenin (β-catenin [2])	LD50 [3]	toxicity to osteoblasts and chondrocytes [4]	movement of stabilized β-catenin into the nucleus (β-catenin [5])	length of the longitudinal bone increased more effectively than by comparative indirubin derivatives (longitudinal bone; [7])	increase of the length of the long bone relative to the control group (longitudinal bone)	LD50 ([3]; orally administered, read-out: 50% lethal dose (LD 50))	length of the ex-vivo longitudinal bone compared to control group (longitudinal bone; 0.5 μM, 6 days in culture medium, control DMSO)	survival rate of chondrocytes ([6]; 5 μM)	concentration at which growth of chondrocytes is inhibited [6]
COc1ccc2c(c1)/C(=C1/Nc3ccccc3/C1=N\O)C(=O)N2 [Example 2, 5-methoxylindirubin-3′-oxime]	~2 fold	more than 30%	significantly induced the stabilization of β-catenin	≥ 1000 mg/kg	not toxic	increase the mobility of the stabilized β-catenin into the nucleus	about 54%	~180%				
CO/N=C1/C(=C2/C(=O)Nc3cc(Cl)c(Cl)cc32)Nc2ccccc21 [Example 1, 5,6-dichloroindirubin-3′-methoxime]	~2 fold		significantly induced the stabilization of β-catenin		not toxic	increase the mobility of the stabilized β-catenin into the nucleus	about 54%	~180%	≥ 1000 mg/kg			
O=C1Nc2cc(Br)ccc2/C1=C1/Nc2ccccc2/C1=N\O [Comparative Example 6, 6-bromoindirubin-3′-oxime]										reduced	below 50%	≥ 1000 nM
